We go through 17 compounds from US8729078B2, “Inhibitors of bruton's tyrosine kinase” (Hoffmann-La Roche Inc., priority 2011, dated 2014).

Bounds are passed on as bounds.

For experiment [1], the system named is B cells in human whole blood (CD69 expression). The experiment can be described thus: Inhibition of B cell activation in whole blood measured by CD69 expression. Format: cell-based. The note with it: anti-IgM stimulation, CD69-positive CD20-positive cells. On the procedure: Inhibition of B Cell Activation in Whole Blood Measured by CD69 Expression
A procedure to test the ability of Btk inhibitors to suppress B cell receptor-mediated activation of B cells in human blood is as follows:
Human whole blood (HWB) is obtained from healthy volunteers, with the following restrictions: 24 hr drug-free, non-smokers. Blood is collected by venipuncture into Vacutainer tubes anticoagulated with sodium heparin. Test compounds are diluted to ten times the desired starting drug concentration in PBS (20×), followed by three-fold serial dilutions in 10% DMSO in PBS to produce a nine point dose-response curve. 5.5 μl of each compound dilution is added in duplicate to a 2 ml 96-well V bottom plate (Analytical Sales and Services, #59623-23); 5.5 μl of 10% DMSO in PBS is added to control and no-stimulus wells. HWB (100 μl) is added to each well, and after mixing the plates are incubated at 37 C, 5% CO2, 100% humidity for 30 minutes. Goat F(ab′)2 anti-human IgM (Southern Biotech, #2022-14) (10 μl of a 500 μg/ml solution, 50 μg/ml final concentration) is added to each well (except the no-stimulus wells) with mixing and the plates are incubated for an additional 20 hours.
At the end of the 20 hour incubation, samples are incubated with florescent-probe-labeled anti-bodies (15 μl PE Mouse anti-Human CD20, BD Pharmingen, #555623, and/or 20 ul APC Mouse anti-Human CD69, BD Pharmingen #555533) for 30 minutes, at 37 C, 5% CO2, 100% humidity. Included are induced control, unstained and single stains for compensation adjustments and initial voltage settings. Samples are then lysed with 1 ml of 1× Pharmingen Lyse Buffer (BD Pharmingen #555899), and plates are centrifuged at 1800 rpm for 5 minutes. Supernatants are removed via suction and the remaining pellets are lysed again with another 1 ml of 1× Pharmingen Lyse Buffer, and plates are spun down as before. Supernatants are aspirated and remaining pellets are washed in FACs buffer (PBS+1% FBS). After a final spin, the supernantants are removed and pellets are resuspended in 180 μl of FACs buffer. Samples are transferred to a 96 well plate suitable to be run on the HTS 96 well system on the BD LSR II flow cytometer.
Using appropriate excitation and emission wavelengths for the fluorophores used, data are acquired and percent positive cell values are obtained using Cell Quest Software. Results are initially analyzed by FACS analysis software (Flow Jo). […] The IC50 values are calculated using XLfit software version 3, equation 201.

The target in a further experiment is Btk (Homo sapiens (Human), UniProt Q06187). The experiment can be described thus: Bruton's Tyrosine Kinase (Btk) inhibition assay (FRET BTK). It is filed as biochemical.
Btk, sequence (Q06187 whole entry): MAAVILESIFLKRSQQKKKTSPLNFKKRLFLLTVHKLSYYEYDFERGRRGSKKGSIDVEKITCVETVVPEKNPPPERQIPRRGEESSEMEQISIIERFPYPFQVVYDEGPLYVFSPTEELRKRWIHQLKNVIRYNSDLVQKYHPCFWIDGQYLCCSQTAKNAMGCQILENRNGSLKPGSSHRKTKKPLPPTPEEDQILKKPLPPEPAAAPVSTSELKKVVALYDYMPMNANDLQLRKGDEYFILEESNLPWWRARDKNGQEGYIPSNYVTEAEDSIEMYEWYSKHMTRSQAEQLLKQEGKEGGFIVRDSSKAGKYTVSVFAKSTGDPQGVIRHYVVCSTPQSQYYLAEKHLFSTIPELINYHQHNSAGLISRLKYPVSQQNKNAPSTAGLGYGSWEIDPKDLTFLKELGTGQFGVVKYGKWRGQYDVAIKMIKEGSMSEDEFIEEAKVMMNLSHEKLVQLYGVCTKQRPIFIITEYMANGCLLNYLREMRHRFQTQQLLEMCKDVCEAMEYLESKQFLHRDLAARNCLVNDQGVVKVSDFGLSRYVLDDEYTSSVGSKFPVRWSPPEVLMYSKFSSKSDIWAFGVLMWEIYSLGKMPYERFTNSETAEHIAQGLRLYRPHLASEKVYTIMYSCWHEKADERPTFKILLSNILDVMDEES

Take `CC(C)(C)c1ccc2c(=O)n(-c3cccc(-c4c[nH]c(C(N)=O)c4)c3CO)ncc2c1` [Compound I-3, 4-[3-(6-tert-Butyl-1-oxo-1H-phthalazin-2-yl)-2-hydroxymethyl-phenyl]-1H-pyrrole-2-carboxylic acid amide]: the IC50 (usually the midpoint of a concentration-inhibition curve) is over 5000 nM in experiment [1] and 27 nM on Btk.
Consider `Cc1nc(-c2cccc(-n3ncc4cc(C(C)(C)C)ccc4c3=O)c2CO)oc1C(N)=O` [Compound I-6, 2-[3-(6-tert-Butyl-1-oxo-1H-phthalazin-2-yl)-2-hydroxymethyl-phenyl]-4-methyl-oxazole-5-carboxylic acid amide], for which the half-maximal inhibitory concentration (IC50) was over 5000 nM in experiment [1] and 1260 nM against Btk.
Regarding `CC(C)(C)c1ccc2c(=O)n(-c3cccc(-n4cc(C(N)=O)c5ccccc54)c3CO)ncc2c1` [Compound I-18, 1-[3-(6-tert-Butyl-1-oxo-1H-phthalazin-2-yl)-2-hydroxymethyl-phenyl]-1H-indole-3-carboxylic acid amide], the IC50 in experiment [1] was found to be 10700 nM.
Compound `CC(C)(C)c1cc(F)c2c(=O)n(-c3cccc(-n4cc(C(N)=O)c5ccccc54)c3CO)ncc2c1` [Compound I-17, 1-[3-(6-tert-Butyl-8-fluoro-1-oxo-1H-phthalazin-2-yl)-2-hydroxymethyl-phenyl]-1H-indole-3-carboxylic acid amide] came in with an IC50 in experiment [1] of 2660 nM.
The same measure, in the same setting: as for `Cn1c(C(N)=O)ccc1-c1cccc(-n2ncc3cc(C(C)(C)C)ccc3c2=O)c1CO` [Compound I-5, 5-[3-(6-tert-Butyl-1-oxo-1H-phthalazin-2-yl)-2-hydroxymethyl-phenyl]-1-methyl-1H-pyrrole-2-carboxylic acid amide], the figure is 4370 nM; as for `CN(C)Cc1ccc2c(C(N)=O)cn(-c3cccc(-n4ncc5cc(C(C)(C)C)cc(F)c5c4=O)c3CO)c2n1` [Compound I-52, 1-[3-(6-tert-Butyl-8-fluoro-1-oxo-1H-phthalazin-2-yl)-2-hydroxymethyl-phenyl]-6-dimethylaminomethyl-1H-pyrrolo[2,3-b]pyridine-3-carboxylic acid amide], 1070 nM; as for `CC(C)(C)c1cc(F)c2c(=O)n(-c3cccc(-n4cc(C(N)=O)c(Nc5ccc(C(=O)N6CCOCC6)cc5)n4)c3CO)ncc2c1` [Compound I-20, 1-[3-(6-tert-Butyl-8-fluoro-1-oxo-1H-phthalazin-2-yl)-2-hydroxymethyl-phenyl]-3-[4-(morpholine-4-carbonyl)-phenylamino]-1H-pyrazole-4-carboxylic acid amide], 10 nM.
For `Cn1cc(-c2cccc(-n3ncc4cc(C(C)(C)C)cc(CO)c4c3=O)c2CO)cc1C(N)=O` [Compound I-12, 4-[3-(6-tert-Butyl-8-hydroxymethyl-1-oxo-1H-phthalazin-2-yl)-2-hydroxymethyl-phenyl]-1-methyl-1H-pyrrole-2-carboxylic acid amide], the figures for the IC50 (in experiment [1]; against Btk) were over 500 nM and 696 nM, respectively.
In the case of `CC(C)(C)c1cc(F)c2c(=O)n(-c3cccc(-c4coc(C(N)=O)c4)c3CO)ncc2c1` [Compound I-11, 4-[3-(6-tert-Butyl-8-fluoro-1-oxo-1H-phthalazin-2-yl)-2-hydroxymethyl-phenyl]-furan-2-carboxylic acid amide], the IC50 in experiment [1] was over 500 nM; against Btk, 51.4 nM.
The like results for `Cn1cc(-c2cccc(-n3ncc4cc(C(C)(C)C)cc(F)c4c3=O)c2CO)nc1C(N)=O` [Compound I-8, 4-[3-(6-tert-Butyl-8-fluoro-1-oxo-1H-phthalazin-2-yl)-2-hydroxymethyl-phenyl]-1-methyl-1H-imidazole-2-carboxylic acid amide] were, in that order, 1910 nM and 18.2 nM.
Turning to `CC(C)(C)c1cc(F)c2c(=O)n(-c3cccc(-c4nc(C(N)=O)cs4)c3CO)ncc2c1` [Compound I-7, 2-[3-(6-tert-Butyl-8-fluoro-1-oxo-1H-phthalazin-2-yl)-2-hydroxymethyl-phenyl]-thiazole-4-carboxylic acid amide], the results for the IC50 (in experiment [1]; on Btk) were over 5000 nM and 130 nM, respectively.
`CN1Cc2cc(C(C)(C)C)ccc2C(=O)N1c1cccc(-c2cc(C(N)=O)n(C)c2)c1CO` [Compound I-14, 4-[3-(6-tert-Butyl-3-methyl-1-oxo-3,4-dihydro-1H-phthalazin-2-yl)-2-hydroxymethyl-phenyl]-1-methyl-1H-pyrrole-2-carboxylic acid amide]: the IC50 came to 4740 nM in experiment [1] and 26.7 nM on Btk.
In the same order, the values of `Cn1cc(-c2cccc(-n3ncc4cc(C(C)(C)C)ccc4c3=O)c2CO)cc1C(N)=O` [Compound I-4, 4-[3-(6-tert-Butyl-1-oxo-1H-phthalazin-2-yl)-2-hydroxymethyl-phenyl]-1-methyl-1H-pyrrole-2-carboxylic acid amide] are 3600 nM and 11.6 nM.
In the case of `CC(C)(C)c1cc(F)c2c(=O)n(-c3cccc(-n4cc(C(N)=O)c(Nc5ccc(C(=O)N6CCOCC6)cc5)n4)c3)ncc2c1` [Compound I-21, 1-[3-(6-tert-Butyl-8-fluoro-1-oxo-1H-phthalazin-2-yl)-phenyl]-3-[4-(morpholine-4-carbonyl)-phenylamino]-1H-pyrazole-4-carboxylic acid amide], half-maximal inhibition in experiment [1] (IC50) was put at 260 nM.
As for `Cn1cc(-c2cccc(-n3ncc4cc(C(C)(C)C)cc(F)c4c3=O)c2CO)cc1C(N)=O` [Compound I-9, 4-[3-(6-tert-Butyl-8-fluoro-1-oxo-1H-phthalazin-2-yl)-2-hydroxymethyl-phenyl]-1-methyl-1H-pyrrole-2-carboxylic acid amide], the 50% inhibitory concentration (IC50) in experiment [1] worked out at 1260 nM; on Btk, 2.51 nM.
The like results for `CC(C)(C)c1cc(F)c2c(=O)n(-c3cccc(-c4ccc(C(N)=O)o4)c3CO)ncc2c1` [Compound I-10, 5-[3-(6-tert-Butyl-8-fluoro-1-oxo-1H-phthalazin-2-yl)-2-hydroxymethyl-phenyl]-furan-2-carboxylic acid amide] were, in that order, over 5000 nM and 832 nM.
Take `CC(C)(C)c1ccc2c(=O)n(-c3cccc(-n4cc(C(N)=O)c(Nc5ccc(C(=O)N6CCOCC6)cc5)n4)c3CO)ncc2c1` [Compound I-19, 1-[3-(6-tert-Butyl-1-oxo-1H-phthalazin-2-yl)-2-hydroxymethyl-phenyl]-3-[4-(morpholine-4-carbonyl)-phenylamino]-1H-pyrazole-4-carboxylic acid amide]: in experiment [1], half-maximal inhibition (IC50) required 48 nM.
